{"source": "paper PMC12362796", "about": "“Bilirubin Targeting WNK1 to Alleviate NLRP3‐Mediated Neuroinflammation” (Advanced Science, 2025)", "key": {"[1]": {"molecular_target": "T1, hWNK1(181–507 S382A) (Homo sapiens, UniProt Q9H4A3, S382A)", "T1 construct": "The kinase‐dead WNK1 mutant hWNK1(181–507 S382A) served as a negative control", "T1 sequence (Q9H4A3 181-507 S382A)": "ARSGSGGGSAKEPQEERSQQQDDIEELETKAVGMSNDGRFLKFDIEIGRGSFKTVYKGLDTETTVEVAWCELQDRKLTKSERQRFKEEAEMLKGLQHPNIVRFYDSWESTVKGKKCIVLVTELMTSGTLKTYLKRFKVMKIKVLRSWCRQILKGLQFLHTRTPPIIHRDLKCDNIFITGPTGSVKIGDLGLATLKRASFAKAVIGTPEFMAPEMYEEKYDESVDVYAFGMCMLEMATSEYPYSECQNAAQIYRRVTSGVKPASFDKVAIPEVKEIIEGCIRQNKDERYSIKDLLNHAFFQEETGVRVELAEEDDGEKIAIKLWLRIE", "assay": "ADP-Glo kinase assay, kinase-dead WNK1 mutant control", "assay_type": "biochemical", "conditions": "negative control", "from_the_text": "Given the binding of bilirubin to the kinase domain of WNK1, we aimed to explore its effect on WNK1 with a particular focus on its kinase activity. To evaluate WNK1 kinase activity, we utilized an in vitro kinase enzyme assay system to quantify ADP production by the amino acid fragment 181–507 of human WNK1 (hWNK1) over a range of bilirubin concentrations. The kinase‐dead WNK1 mutant hWNK1(181–507 S382A) served as a negative control (Figure S10, Supporting Information).^[ [30] ^]\nWNK1 kinase activity was measured using the ADP‐Glo Kinase Assay (Promega, Cat. V9101) following the manufacturer's instructions. Purified protein was incubated with bilirubin across a range of 12 serially diluted concentrations, beginning at a maximum concentration of 20 µM. After the incubation period, luminescence was recorded using a microplate reader (Synergy H1M, BioTek)"}, "[2]": {"test_system": "LPS-induced NLRP3 inflammasome activation in hippocampus", "assay": "LPS-induced inflammation model in mice, hippocampal NLRP3 inflammasome activation", "assay_type": "in vivo, mouse", "from_the_text": "Furthermore, a murine model of infection‐induced inflammation was established in neonatal wild‐type, Blvra^−/− , and Ugt1a1^+/− mice by intraperitoneal administration of lipopolysaccharide (LPS) (Figure 5A).^[ [41], [42] ^] We assessed the expression levels of NLRP3 in the hippocampal region and the aggregation of the adaptor protein ASC in hippocampal neurons to indicate the level of inflammasome activation.^[ [43], [44] ^] We observed elevated NLRP3 expression (Figure 5B) and increased ASC aggregation in low‐bilirubin Blvra^−/− mice compared to wild‐type controls, whereas these parameters were reversed in high‐bilirubin Ugt1a1^+/− mice (Figure 5C,D). Additionally, Caspase‐1 enzyme activity decreased in high‐bilirubin mice (Figure 5E), supporting the inhibitory role of bilirubin in NLRP3 activation.\nFigure 5 Bilirubin‐WNK1 suppresses LPS‐induced NLRP3 activation in the mouse hippocampus. A) Diagram of the experimental design. LPS (0.6 µg g^−1) or normal saline (NS) was injected intraperitoneally (i.p.) for 5 consecutive days starting on day 7. Hippocampal tissues were harvested 6 h after last injection. B) Western blotting analysis of NLRP3 in hippocampal tissues from WT, Blvra^−/− , or Ugt1a1^+/− mice after LPS/saline treatment. C) Immunofluorescence staining of ASC speck formation in hippocampal tissues from WT, Blvra^−/− , or Ugt1a1^+/− mice after LPS/saline treatment. β3‐Tubulin was used to label neurons and DAPI to stain cell nuclei. Main image scale bars = 50 µm, inset scale bars = 5 µm. D) Summary data showing the percentage of cells containing ASC specks as shown in C) (n = 6). (E) Relative activity of caspase‐1 in hippocampal tissues from WT, Blvra^−/− , or Ugt1a1^+/− mice after LPS/saline treatment (n = 3). F) Experimental design diagram. LPS (0.6 µg g^−1), LPS combined with bilirubin (5 µg g^−1), or normal saline (NS) was injected intraperitoneally for 5 consecutive days starting on day 7. G) Western blotting analysis of NLRP3 in hippocampal tissues from Wnk1^fl/fl,Thy1‐Cre mice after treatment. H) Immunofluorescence staining of ASC speck formation in hippocampal tissues from vehicle‐treated and Wnk1^fl/fl,Thy1‐Cre mice after treatment. β3‐Tubulin was used to label neurons and DAPI to stain cell nuclei. Main image scale bars = 50 µm, inset scale bars = 5 µm. Corresponding images are also provided in Figure S21 (Supporting Information). I) Relative activity of caspase‐1 in hippocampal tissues from Wnk1^fl/fl and Wnk1^fl/fl,Thy1‐Cre mice after treatment (n = 3). Error bars indicate mean ± SD. *p < 0.05, **p < 0.01, ***p < 0.001, and ****p < 0.0001.\nTo investigate the role of WNK1 in mediating the inhibitory effect of bilirubin on NLRP3 activation, we used Wnk1^fl/fl,Thy1‐Cre mice which is the hippocampal neuron‐specific Wnk1 knockout mice. Mice were then administered intraperitoneal injections of saline, LPS, or a combination of LPS and bilirubin (Figure 5F). After five days of LPS treatment, we observed increased staining areas for GFAP (an astrocyte marker) and IBA1 (a microglia marker). Furthermore, a portion of the adaptor protein ASC (encoded by PYCARD) co‐localized with IBA1 and GFAP.\nCaspase‐1 activity was measured using a Caspase‐1 Activity Assay Kit (Beyotime Biotechnology, Haimen, China). Briefly, 50 µg of protein from the mouse hippocampal tissue was added to a reaction buffer containing Ac‐YVAD‐ρNA. The absorbance was read at 405 nm using a microplate reader, and caspase‐1 activity was normalized to that of the control."}, "[3]": {"conditions": "LPS 0.6 µg g−1 with bilirubin 5 µg g−1 i.p., 5 consecutive days, hippocampus"}}}
{"smiles": "C=CC1=C(C)/C(=C/c2[nH]c(Cc3[nH]c(/C=C4\\NC(=O)C(C)=C4C=C)c(C)c3CCC(=O)O)c(CCC(=O)O)c2C)NC1=O", "note": "[bilirubin, Bilirubin]", "values": [{"measurement": "effect on kinase activity of kinase-dead mutant", "setting": "[1]", "value": "no effect"}, {"measurement": "ASC speck formation", "setting": "[2]; LPS 0.6 µg g−1 with bilirubin 5 µg g−1 i.p., 5 consecutive days, hippocampal neurons", "value": "reduces"}, {"measurement": "Caspase-1 activation", "setting": "[2]; [3]", "value": "reduces"}, {"measurement": "IL-1β cleavage", "setting": "[2]; [3]", "value": "reduces"}, {"measurement": "ASC aggregation in microglia or astrocytes", "setting": "[2]; LPS with bilirubin i.p., 5 days, IBA1 and GFAP co-localization", "value": "does not affect"}, {"measurement": "inhibitory effect on NLRP3 inflammasome assembly, Caspase-1 enzyme activity and IL-1β maturation after deletion of Wnk1", "setting": "[2]; Wnk1fl/fl,Thy1-Cre mice, LPS stimulation", "value": "abolished"}, {"measurement": "phosphorylation-mediated activation of the NF-κB p65 subunit", "setting": "[2]; upon LPS stimulation, hippocampus", "value": "neither bilirubin nor Wnk1 deficiency had a significant effect"}]}
